The record followed here is ChEMBL document CHEMBL4706512, “Design, synthesis and antitumor activity of novel thiophene-pyrimidine derivatives as EGFR inhibitors overcoming T790M and L858R/T790M mutations” (Eur J Med Chem, 2020).

The target of assay [1] is T1, Epidermal growth factor receptor (Homo sapiens, UniProt P00533). Kind of assay: Inhibition of wild type EGFR (unknown origin) using FAM-labelled peptide as substrate at 1 uM incubated for 10 mins in presence of ATP measured by mobility shift assay.
T1 sequence (P00533 whole entry): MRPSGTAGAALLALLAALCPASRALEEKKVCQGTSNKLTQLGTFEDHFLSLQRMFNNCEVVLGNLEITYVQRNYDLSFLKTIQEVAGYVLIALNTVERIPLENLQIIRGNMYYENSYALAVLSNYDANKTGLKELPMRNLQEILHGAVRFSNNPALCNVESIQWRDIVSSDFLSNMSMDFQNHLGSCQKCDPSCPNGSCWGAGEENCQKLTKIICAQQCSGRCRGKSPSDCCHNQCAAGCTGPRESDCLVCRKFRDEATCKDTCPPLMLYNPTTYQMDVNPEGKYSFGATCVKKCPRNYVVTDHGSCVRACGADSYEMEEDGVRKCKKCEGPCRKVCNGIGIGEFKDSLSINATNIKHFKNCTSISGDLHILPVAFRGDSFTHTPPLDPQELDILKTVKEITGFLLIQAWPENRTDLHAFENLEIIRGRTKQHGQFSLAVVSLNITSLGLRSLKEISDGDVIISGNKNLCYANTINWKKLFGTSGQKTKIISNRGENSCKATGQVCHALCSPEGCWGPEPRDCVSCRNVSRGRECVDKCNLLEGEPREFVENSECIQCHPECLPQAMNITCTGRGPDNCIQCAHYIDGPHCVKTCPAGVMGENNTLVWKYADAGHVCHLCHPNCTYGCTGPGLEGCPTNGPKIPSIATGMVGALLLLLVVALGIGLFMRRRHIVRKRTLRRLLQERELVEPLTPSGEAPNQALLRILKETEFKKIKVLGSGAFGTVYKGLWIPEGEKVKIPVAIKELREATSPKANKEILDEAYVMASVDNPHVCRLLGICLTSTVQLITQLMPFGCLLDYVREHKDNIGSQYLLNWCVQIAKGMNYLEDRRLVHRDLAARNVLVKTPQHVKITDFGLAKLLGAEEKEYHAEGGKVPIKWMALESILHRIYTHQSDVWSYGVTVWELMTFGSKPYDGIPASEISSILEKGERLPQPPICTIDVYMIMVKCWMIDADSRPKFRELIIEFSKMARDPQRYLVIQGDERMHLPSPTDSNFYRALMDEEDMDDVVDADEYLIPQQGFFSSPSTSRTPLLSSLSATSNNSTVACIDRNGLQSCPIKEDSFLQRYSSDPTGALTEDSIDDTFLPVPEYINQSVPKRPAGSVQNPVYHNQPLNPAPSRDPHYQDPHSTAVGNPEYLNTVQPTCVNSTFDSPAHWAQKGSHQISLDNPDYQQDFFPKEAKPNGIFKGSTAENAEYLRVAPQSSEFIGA
The species named for assay [2] is Homo sapiens. The assay is described as follows: Inhibition of EGFR T790M/L858R double mutant (unknown origin) using FAM-labelled peptide as substrate at 1 uM incubated for 10 mins in presence of ATP measured by mobility shift assay.
The species entered for assay [3] is Homo sapiens. Kind of assay: Inhibition of EGFR T790M mutant (unknown origin) using FAM-labelled peptide as substrate at 1 uM incubated for 10 mins in presence of ATP measured by mobility shift assay.
The target of assay [4] is Vascular endothelial growth factor receptor 2 (Homo sapiens) (UniProt P35968). Kind of assay: Inhibition of KDR (unknown origin) using FAM-labelled peptide as substrate at 1 uM incubated for 10 mins in presence of ATP measured by mobility shift assay.
Vascular endothelial growth factor receptor 2 (Homo sapiens), sequence (P35968 whole entry): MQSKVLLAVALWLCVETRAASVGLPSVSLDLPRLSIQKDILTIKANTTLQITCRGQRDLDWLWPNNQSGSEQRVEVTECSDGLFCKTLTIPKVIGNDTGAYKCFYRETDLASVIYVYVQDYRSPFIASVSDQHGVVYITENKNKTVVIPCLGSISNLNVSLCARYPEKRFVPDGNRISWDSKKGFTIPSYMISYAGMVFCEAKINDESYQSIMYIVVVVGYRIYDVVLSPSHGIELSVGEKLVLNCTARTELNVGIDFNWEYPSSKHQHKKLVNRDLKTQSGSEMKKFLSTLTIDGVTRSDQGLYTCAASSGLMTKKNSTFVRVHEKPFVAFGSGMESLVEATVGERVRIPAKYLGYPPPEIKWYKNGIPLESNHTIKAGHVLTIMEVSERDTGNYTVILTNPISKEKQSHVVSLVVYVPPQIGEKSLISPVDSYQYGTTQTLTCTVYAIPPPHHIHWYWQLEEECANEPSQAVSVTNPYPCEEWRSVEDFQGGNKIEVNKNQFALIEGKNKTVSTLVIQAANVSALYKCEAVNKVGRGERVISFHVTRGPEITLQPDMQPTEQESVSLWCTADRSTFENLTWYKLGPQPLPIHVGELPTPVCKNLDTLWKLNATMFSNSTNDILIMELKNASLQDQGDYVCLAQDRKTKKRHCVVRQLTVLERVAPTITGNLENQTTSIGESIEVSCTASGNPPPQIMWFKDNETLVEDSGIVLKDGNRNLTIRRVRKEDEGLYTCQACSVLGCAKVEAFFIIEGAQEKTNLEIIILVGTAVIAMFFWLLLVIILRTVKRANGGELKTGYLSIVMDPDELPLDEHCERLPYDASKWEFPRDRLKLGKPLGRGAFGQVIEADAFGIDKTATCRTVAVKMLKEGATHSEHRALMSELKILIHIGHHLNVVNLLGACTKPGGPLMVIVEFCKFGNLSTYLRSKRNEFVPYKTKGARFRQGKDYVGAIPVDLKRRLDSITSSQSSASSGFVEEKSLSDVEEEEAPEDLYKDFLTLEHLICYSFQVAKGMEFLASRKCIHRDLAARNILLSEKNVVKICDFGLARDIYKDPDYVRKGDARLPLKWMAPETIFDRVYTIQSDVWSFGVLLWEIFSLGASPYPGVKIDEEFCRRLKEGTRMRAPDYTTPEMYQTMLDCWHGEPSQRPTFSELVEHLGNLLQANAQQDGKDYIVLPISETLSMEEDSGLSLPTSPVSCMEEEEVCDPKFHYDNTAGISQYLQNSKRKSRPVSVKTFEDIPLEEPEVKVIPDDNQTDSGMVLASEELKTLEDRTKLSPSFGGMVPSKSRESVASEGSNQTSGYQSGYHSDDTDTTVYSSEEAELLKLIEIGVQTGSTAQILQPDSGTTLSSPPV
Assay [5] concerns the target Hepatocyte growth factor receptor (Homo sapiens) (UniProt P08581). Kind of assay: Inhibition of c-MET (unknown origin) using FAM-labelled peptide as substrate at 1 uM incubated for 10 mins in presence of ATP measured by mobility shift assay.
Assay [6] has as its system MCF7. The assay is described as follows: Antiproliferative activity against human MCF7 cells assessed as inhibition of cell proliferation measured after 72 hrs by MTT assay. The note with it: MCF7, 72 h. The assay is classed as functional, cell-based.
Assay [7] deals with HeLa. The assay is described as follows: Antiproliferative activity against human HeLa cells assessed as inhibition of cell proliferation measured after 72 hrs by MTT assay. The assay is classed as functional, cell-based.
Assay [8] has as its system A-431. The assay is described as follows: Antiproliferative activity against human A-431 cells assessed as inhibition of cell proliferation measured after 72 hrs by MTT assay. The assay is classed as functional, cell-based. The note with it: A-431, 72 h.
In assay [9] the test system is A549. The assay is described as follows: Antiproliferative activity against human A549 cells assessed as inhibition of cell proliferation measured after 72 hrs by MTT assay. The assay is classed as functional, cell-based. The note with it: A549, 72 h.
The target in assay [10] is Serine/threonine-protein kinase mTOR (Homo sapiens) (UniProt P42345). The assay is described as follows: Inhibition of mTOR (unknown origin) using FAM-labelled peptide as substrate at 1 uM incubated for 10 mins in presence of ATP measured by mobility shift assay.
For assay [11], the species on record is Homo sapiens. The assay is described as follows: Inhibition of PI3K (unknown origin) using FAM-labelled peptide as substrate at 1 uM incubated for 10 mins in presence of ATP measured by mobility shift assay.
Assay [12] concerns L02. Kind of assay: Cytotoxicity against human L02 cells assessed as inhibition of cell proliferation measured after 72 hrs by MTT assay. The assay is classed as cell-based. The note with it: L02, 72 h.
Assay [13] concerns NCI-H1975. Kind of assay: Antiproliferative activity against human NCI-H1975 cells harboring EGFR T790M/L858R double mutant assessed as inhibition of cell viability at 10 uM measured after 72 hrs by MTT assay. The assay is classed as functional.
The test system of assay [14] is NCI-H1975. The assay is described as follows: Antiproliferative activity against human NCI-H1975 cells harboring EGFR T790M/L858R double mutant assessed as inhibition of cell viability at 1 uM measured after 72 hrs by MTT assay. The assay is classed as functional.
The test system of assay [15] is NCI-H1975. Kind of assay: Antiproliferative activity against human NCI-H1975 cells harboring EGFR T790M/L858R double mutant assessed as inhibition of cell viability measured after 72 hrs by MTT assay. The assay is classed as functional, cell-based. The note with it: NCI-H1975, 72 h.
Assay [16] can be described thus: Inhibition of EGFR T790M mutant (unknown origin) using FAM-labelled peptide as substrate incubated for 10 mins in presence of ATP measured by mobility shift assay. Details: species or system Homo sapiens.
A short description of assay [17]: Inhibition of EGFR T790M/L858R double mutant (unknown origin) using FAM-labelled peptide as substrate incubated for 10 mins in presence of ATP measured by mobility shift assay. Set-up: species or system Homo sapiens.
In assay [18] the target is T1, Epidermal growth factor receptor. Kind of assay: Inhibition of wild type EGFR (unknown origin) using FAM-labelled peptide as substrate incubated for 10 mins in presence of ATP measured by mobility shift assay.
The species entered for assay [19] is Homo sapiens. The assay is described as follows: Selectivity ratio of IC50 for wild type EGFR (unknown origin) to IC50 for EGFR T790M mutant (unknown origin) measured by mobility shift assay.
The species named for assay [20] is Homo sapiens. The assay is described as follows: Selectivity ratio of IC50 for wild type EGFR (unknown origin) to IC50 for EGFR T790M/L858R double mutant (unknown origin) measured by mobility shift assay.
Assay [21] deals with A-431. Kind of assay: Antiproliferative activity against human A-431 cells assessed as inhibition of cell proliferation at 0.33 uM measured after 6 hrs by Acridine orange staining based fluorescence microscopy. The assay is classed as functional.
In assay [22] the test system is A-431. The assay is described as follows: Induction of apoptosis in human A-431 cells assessed as viable cells at 0.2 uM measured after 48 hrs by Annexin V-FITC staining based flow cytometry (reference value: 95.67%). The assay is classed as functional. The note with it: read-out: Activity.
Assay [23] relates to A-431. Kind of assay: Induction of apoptosis in human A-431 cells assessed as early apoptotic cells at 0.2 uM measured after 48 hrs by Annexin V-FITC staining based flow cytometry (reference value: 2.1%). The assay is classed as functional.
The subject of assay [24] is A-431. The assay is described as follows: Induction of apoptosis in human A-431 cells assessed as late apoptotic cells at 0.2 uM measured after 48 hrs by Annexin V-FITC staining based flow cytometry (reference value: 2.02%). The assay is classed as functional.
Assay [25] deals with A-431. Kind of assay: Induction of apoptosis in human A-431 cells assessed as necrotic cells at 0.2 uM measured after 48 hrs by Annexin V-FITC staining based flow cytometry (reference value: 0.21%). The assay is classed as functional.
The subject of assay [26] is A-431. The assay is described as follows: Induction of apoptosis in human A-431 cells assessed as viable cells at 4 uM measured after 48 hrs by Annexin V-FITC staining based flow cytometry (reference value: 95.67%). The assay is classed as functional. The note with it: read-out: Activity.
Assay [27] concerns A-431. The assay is described as follows: Induction of apoptosis in human A-431 cells assessed as early apoptotic cells at 4 uM measured after 48 hrs by Annexin V-FITC staining based flow cytometry (reference value: 2.1%). The assay is classed as functional.
In assay [28] the test system is A-431. The assay is described as follows: Induction of apoptosis in human A-431 cells assessed as late apoptotic cells at 4 uM measured after 48 hrs by Annexin V-FITC staining based flow cytometry (reference value: 2.02%). The assay is classed as functional.
In assay [29] the test system is A-431. The assay is described as follows: Induction of apoptosis in human A-431 cells assessed as necrotic cells at 4 uM measured after 48 hrs by Annexin V-FITC staining based flow cytometry (reference value: 0.21%). The assay is classed as functional.
In assay [30] the test system is A-431. Kind of assay: Induction of apoptosis in human A-431 cells assessed as viable cells at 8 uM measured after 48 hrs by Annexin V-FITC staining based flow cytometry (reference value: 95.67%). The note with it: read-out: Activity. The assay is classed as functional.
Assay [31] has as its system A-431. Kind of assay: Induction of apoptosis in human A-431 cells assessed as early apoptotic cells at 8 uM measured after 48 hrs by Annexin V-FITC staining based flow cytometry (reference value: 2.1%). The assay is classed as functional.
The test system of assay [32] is A-431. Kind of assay: Induction of apoptosis in human A-431 cells assessed as late apoptotic cells at 8 uM measured after 48 hrs by Annexin V-FITC staining based flow cytometry (reference value: 2.02%). The assay is classed as functional.
The test system of assay [33] is A-431. Kind of assay: Induction of apoptosis in human A-431 cells assessed as necrotic cells at 8 uM measured after 48 hrs by Annexin V-FITC staining based flow cytometry (reference value: 0.21%). The assay is classed as functional.
The subject of assay [34] is A-431. Kind of assay: Induction of cell morphological changes in human A-431 cells assessed as chromatin contraction with sharp cell edge at 0.33 uM measured after 6 hrs by Acridine orange staining based fluorescence microscopy. The assay is classed as functional.
For assay [35], the system named is A-431. The assay is described as follows: Induction of apoptosis in human A-431 cells assessed as viable cells at 5 uM measured after 48 hrs by Annexin V-FITC staining based flow cytometry (reference value: 95.67%). The note with it: read-out: Activity. The assay is classed as functional.
Assay [36] relates to A-431. The assay is described as follows: Induction of apoptosis in human A-431 cells assessed as early apoptotic cells at 5 uM measured after 48 hrs by Annexin V-FITC staining based flow cytometry (reference value: 2.1%). The assay is classed as functional.
Assay [37] has as its system A-431. Kind of assay: Induction of apoptosis in human A-431 cells assessed as late apoptotic cells at 5 uM measured after 48 hrs by Annexin V-FITC staining based flow cytometry (reference value: 2.02%). The assay is classed as functional.
For assay [38], the system named is A-431. The assay is described as follows: Induction of apoptosis in human A-431 cells assessed as necrotic cells at 5 uM measured after 48 hrs by Annexin V-FITC staining based flow cytometry (reference value: 0.21%). The assay is classed as functional.

Active and inactive are the calls of the source. The rule behind the calls is not given here.

Hepatocyte growth factor receptor (Homo sapiens), sequence (P08581 whole entry): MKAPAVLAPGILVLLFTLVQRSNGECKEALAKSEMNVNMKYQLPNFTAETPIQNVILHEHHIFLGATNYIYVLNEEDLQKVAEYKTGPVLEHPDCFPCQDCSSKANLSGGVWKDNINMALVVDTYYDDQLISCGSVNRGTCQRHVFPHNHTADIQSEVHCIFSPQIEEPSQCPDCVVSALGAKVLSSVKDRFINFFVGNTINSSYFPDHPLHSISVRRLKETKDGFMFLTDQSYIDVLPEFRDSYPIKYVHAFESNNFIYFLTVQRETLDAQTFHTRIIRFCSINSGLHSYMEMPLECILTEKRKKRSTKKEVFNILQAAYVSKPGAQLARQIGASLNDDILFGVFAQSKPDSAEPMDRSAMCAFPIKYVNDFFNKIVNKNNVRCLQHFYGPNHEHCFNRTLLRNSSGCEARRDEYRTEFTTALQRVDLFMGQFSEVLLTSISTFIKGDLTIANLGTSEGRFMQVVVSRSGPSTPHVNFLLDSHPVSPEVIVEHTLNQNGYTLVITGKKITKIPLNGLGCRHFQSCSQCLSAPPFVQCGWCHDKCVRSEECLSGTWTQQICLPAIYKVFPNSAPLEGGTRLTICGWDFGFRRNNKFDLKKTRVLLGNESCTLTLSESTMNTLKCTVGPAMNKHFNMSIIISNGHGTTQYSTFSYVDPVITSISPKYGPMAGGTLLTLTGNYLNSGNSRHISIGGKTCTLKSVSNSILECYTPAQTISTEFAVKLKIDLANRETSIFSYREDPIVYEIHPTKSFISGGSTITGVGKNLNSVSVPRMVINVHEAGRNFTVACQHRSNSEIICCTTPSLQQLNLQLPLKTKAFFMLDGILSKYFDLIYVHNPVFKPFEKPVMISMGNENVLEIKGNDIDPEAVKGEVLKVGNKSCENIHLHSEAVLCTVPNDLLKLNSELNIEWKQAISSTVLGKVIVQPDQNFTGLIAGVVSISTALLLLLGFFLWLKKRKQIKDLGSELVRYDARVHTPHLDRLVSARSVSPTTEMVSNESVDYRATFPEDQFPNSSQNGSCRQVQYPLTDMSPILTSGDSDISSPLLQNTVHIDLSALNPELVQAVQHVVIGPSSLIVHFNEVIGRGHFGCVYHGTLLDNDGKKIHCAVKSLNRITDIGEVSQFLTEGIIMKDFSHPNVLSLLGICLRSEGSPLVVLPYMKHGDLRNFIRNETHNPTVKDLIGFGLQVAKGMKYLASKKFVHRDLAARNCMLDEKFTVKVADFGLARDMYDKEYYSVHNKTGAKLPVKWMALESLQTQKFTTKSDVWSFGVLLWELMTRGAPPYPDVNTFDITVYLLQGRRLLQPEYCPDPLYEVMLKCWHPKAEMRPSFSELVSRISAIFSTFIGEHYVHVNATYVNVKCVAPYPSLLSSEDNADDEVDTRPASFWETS

Regarding `C=CC(=O)Nc1cccc(Oc2nc(Nc3cccc(OC)c3)nc3ccsc23)c1`, the inhibition is 24% in assay [1]; 104% in assay [2]; 94.8% in [3]; -0.2% in assay [4]; 0.5% in [5]; 9.7% in assay [10]. Also, the inhibition in assay [11] came out at 31.6%. In addition, the 50% inhibitory concentration (IC50) in [6] stood at 19 µM; in [7], 16.4 µM; in [8] it was 4.79 µM; in assay [9], 4.34 µM; in assay [12], 30.3 µM; in assay [15], 0.418 µM. Also, the IC50 is 0.0766 µM in assay [16], 0.0153 µM in assay [17] and more than 1 µM in assay [18]. The inhibition at 10 µM in [13] is 86.8%. The inhibition at 1 µM in assay [14] was 50.6%. The Selectivity ratio in assay [19] was more than 13; in assay [20], more than 65.

For the compound `C=CC(=O)Nc1cccc(Oc2nc(Nc3cccc(C#N)c3)nc3ccsc23)c1`, the inhibition in assay [1] turned out to be 23.5%; in assay [2], 104%; in [3] it was 95.9%; in [4], 1.1%; in assay [5] it was 6%; in [10] it was 9.3%. In assay [11], the inhibition amounted to 31.5%. Also, the IC50 in assay [6] is 19 µM; in assay [7], 6.39 µM; in assay [8], 3.79 µM; in [9] it was 4.34 µM; in [12], more than 50 µM; in assay [15], 0.699 µM. The IC50 was 0.065 µM in [16], 0.0136 µM in assay [17] and more than 1 µM in assay [18]. The inhibition at 10 µM in assay [13] is 79.5%. The inhibition at 1 µM in assay [14] was found to be 44.3%. Moreover, the Selectivity ratio in assay [19] is more than 15; in [20] it was more than 73. In addition, the result in [21] and in assay [34] was Active. In addition, in assay [22], the viability at 0.2 µM is 83.4%. The Activity in assay [23] was 3.29%; in assay [24], 12.66%; in assay [25], 0.63%; in assay [27] it was 4.87%; in assay [28], 16.41%; in assay [29] it was 1.33%. In addition, the results for the Activity in assay [31], in assay [32] and in [33] were 3.54%, 17.17% and 0.97%, respectively. In assay [26], the viability at 4 µM was determined as 77.4%. Moreover, in assay [30], the viability at 8 µM was 78.3%.

`C=CC(=O)Nc1cccc(Oc2nc(Nc3ccc(N4CCN(C)CC4)cc3)nc3ccsc23)c1` [OLMUTINIB]: the inhibition in assay [3] came out at 98.1%. For the same compound, the IC50 was determined as 6.9 µM in [6]; 9.27 µM in assay [7]; 5.29 µM in [8]; 4.29 µM in assay [9]; 25.5 µM in assay [12]; 0.52 µM in assay [15]. Moreover, the IC50 came to 0.048 µM in assay [16] and 0.0127 µM in [17]. Further, the inhibition at 10 µM in assay [13] was determined as 74.6%. The inhibition at 1 µM in assay [14] is 6.08%. Further, the viability at 5 µM in [35] was found to be 78.7%. The Activity turned out to be 5.17% in assay [36], 14.78% in [37] and 1.37% in assay [38].
